According to patent publication US10272260B2, “Methods and devices for diagnosing, monitoring, or treating medical conditions through an opening through an airway wall” (Broncus Medical Inc., priority 2011, dated 2019):

Conditions: polymer system of polydimethylsiloxane vinyl terminated at various viscosity and a range of platinum-mono, di, tri and/or tetramethyldisiloxane complex
Description: The amount of vinyl siloxane cross-linker may determine the rate of the drug release and diffusivity of the polymer to the drug.

release profile: acceptable
Structure (SMILES): CC(=O)O[C@H]1C(=O)[C@@]2(C)[C@H]([C@H](OC(=O)c3ccccc3)[C@]3(O)C[C@H](OC(=O)[C@H](O)[C@@H](NC(=O)c4ccccc4)c4ccccc4)C(C)=C1C3(C)C)[C@]1(OC(C)=O)CO[C@@H]1C[C@@H]2O [paclitaxel]
